Assay results as given in US20150150765A1, “VOLATILE OIL FOR COSMETICS” (NOF Corporation, priority 2012, published 2015).

Experiments:
[1] = evaluation of barrier property (evaporated water quantity, Tewameter); assay type: in vivo; settings: inside human forearm, two hours after applying 10 μL; blank = 100%; below 100% = improvement
Experimental: [Evaluation of Barrier Property]
With the volatile oil for external preparations for skin of the present invention, an evaporated water quantity in a stratum corneum was measured by the method shown below, and the evaporated water quantity (barrier property) was evaluated.
(Measuring Equipment) Tewameter™210 (from Courage+Kahazaka Co., Ltd.)
(§1) (Measuring Conditions) Temperature of 20° C., Humidity of 40%
(Testing Method) Samples are applied inside a human forearm, and an evaporated water quantity is measured after two hours.
(§2) (Applying Various Oils and Preparing Tests)
(§3) (1) The measurement site of a subject is washed with neutral detergent and tap water and then dried. The subject goes in the constant temperature and humidity chamber 30 min. before measurement to allow the measurement site to get used to the environment inside the chamber.
(2) Before applying samples, an evaporated water quantity is measured at a site to be applied that is marked in a circle 1 cm in diameter. […]
(4) The evaporated water quantity is measured at the measurement site two hours after being applied.
(Assessment) With the evaporated water quantity at measurement sites with no oil treatment (blanks) as 100%, the evaporated water quantity was evaluated after being treated with each sample. […]

[2] = evaluation of skin viscoelasticity (Cutometer); assay type: in vivo; settings: inside human forearm, two hours after applying 10 μL; blank = 100%; above 100% = improvement
Experimental: [Evaluation of Skin Viscoelasticity]
With the volatile oil for external preparations for skin of the present invention, skin viscoelasticity was measured by the method shown below, and the skin viscoelasticity was evaluated.
(Measuring Equipment) Cutometer (from I.B.S. Co., Ltd.)
as §1
(Testing Method) Samples are applied inside a human forearm, and viscoelasticity is measured after two hours.
as §2, §3
(2) Before applying samples, viscoelasticity is measured at a site to be applied that is marked in a circle with 1 cm in diameter.
(3) Samples are dropped by 10 μL with a micropipette onto a measurement site that is marked in a circle with 1 cm in diameter, and are applied, to skin at the marking site.
(4) The viscoelasticity is measured at the measurement site two hours after being applied.
(Assessment) With the […] at measurement sites with no oil treatment (blanks) as 100%, skin viscoelasticity was evaluated after being treated with each sample. […]

[3] = evaluation of smoothness of hair (MIU friction resistance of hair surface); design: species or system human; settings: coefficient of friction of bleached hair, hair untreated with oil = 100%; below 100% = improvement; 20° C., 40% humidity
Experimental: (§4) [Evaluation of Smoothness]
With the volatile oil for hair cosmetics of the present invention, coefficients of friction were measured by the method shown below, and the improvement of smoothness, when applied to hair, was evaluated.
Method of Evaluating Smoothness (Improvement after Treating Bleached Hair with Each Sample)
(Evaluation) MIU (Resistance: μ): Friction resistance of hair surface (Measuring Equipment) Friction tester (from Kato Tech Co., Ltd.) (Measuring Conditions) Measurement environment at 20° C.; 40% of Humidity; Constant temperature and humidity chamber; Number of hair for measurement: ten; Contactor: Silicon rubber; Load: 25 gf (Hair Employed) Bleached healthy human hair that was purchased
as §2
(§5) (1) One hair is picked out of the bundle of human hair. Each sample is dropped onto an index finger cushion from a syringe, and is blended with a thumb.
(§6) (2) The picked hair is pinched between the index finger and the thumb, and is coated with a sample from its root to the end.
(3) After the sample is coated, excess sample is wiped off with a waste cloth made of paper (Trade Name: Kim Wipes). […]
(Assessment) With the coefficient of friction of hair untreated with oil as 100%, smoothness is evaluated after being treated with each sample. […]

[4] = order of volatility, sample spread on filter paper and dried; assay type: physicochemical; settings: 0.1 g on filter paper of 110 mm diameter; rank by speed to be completely dry (1 = fastest)
Experimental: It is noted that for the order of volatility in Table 1, 0.1 g of each sample was spread on a filter paper of 110 mm in diameter, and the weight was measured after drying for two hours. Ranking was based on the order of the speed that it took the samples to be completely dry and 0 g in weight.

[5] = evaluation of moisture retention (amount of moisture in stratum corneum, SKICON-200EX); assay type: in vivo; settings: inside human forearm, two hours after applying 10 μL; blank = 100%; above 100% = improvement
Experimental: [Evaluation of Moisture Retention]
With the volatile oil for external preparations for skin of the present invention, the amount of moisture in a stratum corneum was measured by the method shown below, and the amount of moisture (moisture retention) was evaluated.
(Measuring Equipment) SKICON-200EX (from I.B.S. Co., Ltd.)
as §1
(Testing Method) Samples are applied inside a human forearm, and the amount of moisture is measured after two hours.
as §2, §3
(2) Before applying samples, the amount of moisture is measured at a site to be applied that is marked in a circle 1 cm in diameter.
(3) Samples are dropped by 10 μL with a micropipette onto a measurement site that is marked in a circle with 1 cm in diameter, and are applied to skin at the marking site.
(4) The amount of moisture is measured at the measurement site two hours after being applied.
(Assessment) With the amount of water at measurement sites with no oil treatment (blanks) as 100%, the amount of moisture was evaluated after being treated with each sample. […]

hair tensile strength = settings: breaking load of healthy human hair, untreated with oil (blank) = 100%; above 100% = improvement; 25° C.
Experimental: (Measuring Equipment) FUDOH RHEO METER RTC from Rheotech Co., Ltd. (Measuring Condition) Measurement environment: Inside constant temperature chamber at 25° C.
(Hair Employed) Healthy Human Hair
as §2
Beforehand, a bundle of unbleached healthy hair for measurement is placed in a constant temperature chamber for one day.
as §5, §6
(3) After the sample is coated, excess oil is wiped off with a waste cloth made of paper (Trade Name: Kim Wipes).
(4) After ten human hairs are treated with each sample, hair diameter is measured with a diameter.
(5) The hair is fixed with a jag of an equipment, and is given a load by lowering a base onto which the hair is fixed.
(6) The load is recorded when the hair is broken by the load.
(Assessment) With the tensile strength of hair untreated with oil (blank) as 100%, tensile strength was evaluated after being treated with each sample. If there is an improvement in comparison with the blank, the number would be higher than 100%.

[6] = evaluation of smoothness of skin (MIU friction resistance of skin surface); assay type: in vivo; settings: coefficient of friction of skin, inside upper arm, before oil treatment = 100%; below 100% = improvement
Experimental: as §4
With the volatile oil for external preparations for skin of the present invention, coefficients of friction were measured by the following method, and the improvement of smoothness when applied to skin was evaluated.
Method of Evaluating Smoothness (Improvement after Treating Skin with Each Sample)
(Evaluation) MIU (Resistance: μ): Friction resistance of skin surface (Measuring Equipment) Friction tester (from Kato Tech Co., Ltd.) (Measuring Conditions) Measurement environment at 20° C.; 40% of Humidity; Constant temperature and humidity chamber; Measurement site: Inside upper arm; Contactor: Silicon rubber; Load: 25 gf
as §2, §3
(2) Coefficients of friction at sites to be applied are measured before applying samples. […]
(4) After the samples are applied, the coefficients of friction at applied sites are measured every thirty minutes.
(Assessment) With the coefficient of friction at measurement sites before oil treatment as 100%, smoothness was evaluated after being treated with each sample. […]

| Compound | evaporated water quantity (%) [1] | skin viscoelasticity (%) [2] | smoothness (%) [3] | order of volatility [4] | water quantity in stratum corneum (%) [5] | tensile strength (%) (hair tensile strength) | smoothness (%) [6] |
| --- | --- | --- | --- | --- | --- | --- | --- |
| C[Si]1(C)O[Si](C)(C)O[Si](C)(C)O[Si](C)(C)O[Si](C)(C)O1 [compound 1] | 106% | 95% | 83% | 3 | 120% | 120% | 108% |
| CC(CC(C)(C)C)CC(C)(C)C [compound 2, 2,2,4,6,6-pentamethylheptane] | 105% | 97% | 78% | 1 | 112% | 125% | 104% |
